pIC50: −log10 of the molar value.
How the values were obtained:
HaCaT [1] = test: Cytotoxicity against human HaCaT cells assessed as reduction in cell viability incubated for 24 hrs relative to control; assay type: cell-based
HaCaT [2] = test: Cytotoxicity against human HaCaT cells assessed as reduction in cell viability incubated for 48 hrs relative to control; assay type: cell-based
Acetylcholinesterase [3] = target: T1, Acetylcholinesterase (Rattus norvegicus, UniProt P37136); test: Inhibition of AChE in rat brain cortex; assay type: tissue-based
T1 sequence (P37136 whole entry): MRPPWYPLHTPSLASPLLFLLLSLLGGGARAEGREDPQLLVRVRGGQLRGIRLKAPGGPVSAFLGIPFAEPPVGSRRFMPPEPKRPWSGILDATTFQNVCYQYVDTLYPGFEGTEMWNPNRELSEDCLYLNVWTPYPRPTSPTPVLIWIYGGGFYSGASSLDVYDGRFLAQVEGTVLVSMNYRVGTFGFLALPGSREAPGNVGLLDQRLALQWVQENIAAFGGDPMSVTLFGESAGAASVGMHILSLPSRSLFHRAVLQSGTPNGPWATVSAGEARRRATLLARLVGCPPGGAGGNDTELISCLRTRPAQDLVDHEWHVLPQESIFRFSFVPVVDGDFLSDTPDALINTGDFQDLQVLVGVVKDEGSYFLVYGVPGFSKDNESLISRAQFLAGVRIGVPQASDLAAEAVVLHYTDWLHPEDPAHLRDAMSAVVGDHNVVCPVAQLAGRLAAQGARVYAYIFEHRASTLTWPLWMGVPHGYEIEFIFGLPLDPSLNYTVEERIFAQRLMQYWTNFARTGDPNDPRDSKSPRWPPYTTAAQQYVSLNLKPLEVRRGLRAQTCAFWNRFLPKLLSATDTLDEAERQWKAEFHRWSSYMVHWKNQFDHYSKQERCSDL

Acetylcholinesterase [4] = target: T1, Acetylcholinesterase; test: Inhibition of AChE in rat brain Cerebellum; assay type: tissue-based
Acetylcholinesterase [5] = target: T1, Acetylcholinesterase; test: Inhibition of AChE in rat brain Striatum; assay type: tissue-based
Acetylcholinesterase [6] = target: T1, Acetylcholinesterase; test: Inhibition of AChE in rat brain Hippocampus; assay type: tissue-based
[7] = Solubility in water; assay type: physicochemical; settings: buffer
HaCaT [8] = test: Cytotoxicity against human HaCaT cells assessed as reduction in cell viability upto 10000 uM incubated for 24 hrs relative to control; assay type: cell-based
HaCaT [9] = test: Cytotoxicity against human HaCaT cells assessed as reduction in cell viability upto 10000 uM incubated for 48 hrs relative to control; assay type: cell-based
HaCaT [10] = test: Cytotoxicity against human HaCaT cells assessed as reduction in cell viability at 10000 uM incubated for 24 hrs relative to control; assay type: cell-based
HaCaT [11] = test: Cytotoxicity against human HaCaT cells assessed as reduction in cell viability at 5000 to 10000 uM incubated for 48 hrs relative to control; assay type: cell-based; settings: dose 5000-10000 µM

Row | Compound | Activity (HaCaT [1]) [%] | Activity (HaCaT [2]) [%] | pIC50 (Acetylcholinesterase [3]) | pIC50 (Acetylcholinesterase [4]) | pIC50 (Acetylcholinesterase [5]) | pIC50 (Acetylcholinesterase [6]) | solubility [7] | Activity (HaCaT [8]) | Activity (HaCaT [9]) | Activity (HaCaT [10]) | Activity (HaCaT [11])
1 | CN(C)/N=N/c1[nH]cnc1C(N)=O [DACARBAZINE] | 29.74 | 44.46 |  |  |  |  |  |  |  |  | 
2 | C[N+](C)(C)[C@H](Cc1c[nH]c2ccccc12)C(=O)O.[Cl-] |  |  | 6.62 | 4.72 | 4.46 | 6.49 | Soluble | Non-Toxic | Non-Toxic |  | 
3 | C[N+](C)(C)[C@@H](Cc1c[nH]c2ccccc12)C(=O)O.[Cl-] |  |  | < 3.00 | 4.73 | < 3.00 | < 3.00 | Soluble | Non-Toxic | Non-Toxic |  | 
4 | CN(C)C(=O)Oc1cccc([N+](C)(C)C)c1.[Br-] [NEOSTIGMINE BROMIDE] |  |  | 6.19 | 4.43 | 5.50 | 7.15 |  |  |  | Toxic | Toxic

From ChEMBL document CHEMBL4819153, “l-Hypaphorine and d-hypaphorine: Specific antiacetylcholinesterase activity in rat brain tissue” (Bioorg Med Chem Lett, 2021)
